In PMC11259170, “Small-molecule probe for IBD risk variant GPR65 I231L alters cytokine signaling networks through positive allosteric modulation” (Science Advances, 2024):
Where two headings read alike, the source gives them in different places.

Key:
[1] = target: T1, hGPR65 (Homo sapiens, UniProt Q8IYL9); assay: cAMP detection (Lance Ultra), GPR65 KO HeLa reconstituted with hGPR65; 21K screen dose confirmation; assay type: cell-based; conditions: HeLa GPR65 KO + hGPR65, pH 7.1, 30 min, normalized to DMSO and 100 μM forskolin; read-out: WT EC50
T1 construct: expressed in transfected cells; host or cells: HeLa (ATCC CCL-2), lentiviral transduction, pLX317
T1 sequence (Q8IYL9 whole entry): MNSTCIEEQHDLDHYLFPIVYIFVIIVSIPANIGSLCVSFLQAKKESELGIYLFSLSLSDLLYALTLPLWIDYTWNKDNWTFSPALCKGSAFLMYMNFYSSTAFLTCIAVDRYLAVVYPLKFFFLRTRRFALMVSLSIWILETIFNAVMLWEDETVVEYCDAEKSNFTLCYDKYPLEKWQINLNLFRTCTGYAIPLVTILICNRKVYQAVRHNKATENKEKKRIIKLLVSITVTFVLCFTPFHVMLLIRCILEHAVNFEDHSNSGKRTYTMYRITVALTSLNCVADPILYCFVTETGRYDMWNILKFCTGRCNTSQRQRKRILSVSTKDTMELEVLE
Protocol: (§1) The Lance Ultra cAMP Kit (PerkinElmer, TRF0264) was used for cAMP detection, and included the following reagents: ULight anti-cAMP antibody, Eu-cAMP tracer, 7.5% BSA Stabilizer solution, and cAMP detection buffer. Stimulation buffer was prepared as described by the kit manufacturer as follows: Hanks buffered saline solution (HBSS, Life Technologies, 14025-126) containing 0.5 mM IBMX (3-isobutyl-1-methylxanthine, Sigma-Aldrich, I7018) and buffered with 1 M Hepes (15630-080). Stimulation buffer was then adjusted to pH 7.1 using 12 N HCl. HeLa cells were lifted using Versene and then suspended at 2.5 × 10^5 cells/ml in stimulation buffer. Cells were then plated at 20 μl per well (5000 cells per well) in white, opaque OptiPlate 384-well MicroPlates (PerkinElmer, 6007299) using a Thermo Fisher Scientific Combi liquid dispenser. Compounds, stored at 5 mM in DMSO for the primary screen, or in a range of concentrations from 39 μM to 20 mM for dose curves, were transferred by the CyBio CyBi-Well Vario pin transfer tool with 100-nl pins (V&P FP1NS50H, 50-nl slot, 0.457-mm diameter, hydrophobic coated), into each assay well, 100 nl per well for a final assay concentration of 25 μM for the primary screen, or 195 nM to 100 μM for dose curves. Assay plates were then incubated at RT for 30 min. Eu-cAMP tracer was diluted 1:33 into detection buffer and the final solution then distributed into assay wells, 5 μl per well. ULight anti-cAMP antibody was diluted 1:100 into detection buffer, then distributed into assay wells, also 5 μl per well. Assay plates were then incubated at RT in the dark for 1 hour. Eu-cAMP tracer and Förster resonance energy transfer (FRET) emissions were then read using a PerkinElmer EnVision Multimode plate reader (ENVISION21040010), exciting each well at 320 nm [UV2 (TRF) 320 filter] and reading emissions at 615 nm (Europium 615 filter) and 665 nm (APC665 filter). Data analysis was performed using Genedata Screener and GraphPad Prism.
(§2) HeLa KO cell lines were generated using the px330 plasmid CRISPR system as previously described ([18]). Briefly, HeLa cells were transfected with a Cas9 vector containing a gene-specific single-guide RNA to target the GPR65 coding exon. Forty-eight to 72 hours after transfection, single clones were obtained through limiting dilution and then sequenced to validate the KO. Reconstituted cell lines were produced by transducing KO cells with empty lentivirus or lentivirus containing hGPR65 or mGPR65. After 48 hours, cells were treated with puromycin (3 μg/ml; InvivoGen, ant-pr-1) and resistant cells were used in experiments.

[2] = tested on: GPR65 KO HeLa cells + pLX empty vector; assay: cAMP detection, GPR65 KO HeLa + empty pLX vector (null control); assay type: cell-based, human; conditions: HeLa GPR65 KO + pLX, pH 7.1, 30 min, normalized to DMSO and 100 μM forskolin
Protocol: as §1, §2

[3] = target: T1, hGPR65; assay: cAMP detection in HeLa expression cell line, hGPR65; assay type: cell-based; conditions: NA = no activity; for Emax: HeLa, relative to 100uM forskolin (100%) and DMSO (0%), read-out: hGPR Max Activity %
Summary of the method: (§3)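 Compound was dispensed from a 10 mM DMSO stock, and puromycin-selected HeLa lines carrying lentiviral V5-tagged receptor were added at 1500 cells/well in pH 7.2 stimulation buffer. After 30 min stimulation at room temperature, cells were lysed and detection ran 1 h in the dark before cAMP TR-FRET reading.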

[4] = target: T2, mGPR65 (Mus musculus, UniProt Q61038); assay: cAMP detection in HeLa expression cell line, mGPR65; assay type: cell-based; conditions: NA = no activity; for Emax: HeLa, relative to 100uM forskolin (100%) and DMSO (0%), read-out: mGPR Max Activity %
T2 construct: expressed in transfected cells; host or cells: HeLa (ATCC CCL-2), lentiviral transduction, pLX317
T2 sequence (Q61038 whole entry): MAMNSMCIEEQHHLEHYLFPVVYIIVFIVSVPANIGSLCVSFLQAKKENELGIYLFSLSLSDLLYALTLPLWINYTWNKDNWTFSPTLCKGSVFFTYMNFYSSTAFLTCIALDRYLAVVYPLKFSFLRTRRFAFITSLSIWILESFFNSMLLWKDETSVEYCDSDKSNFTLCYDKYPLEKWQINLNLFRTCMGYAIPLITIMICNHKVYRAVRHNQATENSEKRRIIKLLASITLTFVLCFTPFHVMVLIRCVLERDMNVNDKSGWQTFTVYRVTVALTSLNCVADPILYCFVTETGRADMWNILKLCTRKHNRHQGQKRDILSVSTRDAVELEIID
Summary of the method: as §3

[5] = tested on: GFP-expressing HeLa cells; assay: cAMP detection in HeLa expression cell line, GFP control; assay type: cell-based, human; conditions: Homo sapiens, HeLa, NA = no activity; for Emax: relative to 100uM forskolin (100%) and DMSO (0%), read-out: GFP Max Activity %
Protocol: HeLa stable expression cell lines were produced by lentiviral transduction. Briefly, lentiviral plasmids for each GPCR with a C-terminal V5 Tag ([…]) were made in a pLX317 backbone using competent Escherichia coli (New England Biolabs, C3050H). Lenti-X 293 T (Takara, 632810) cells were transfected with the lentiviral plasmids to produce virus. Low-passage HeLa cells (American Type Culture Collection, CCL-2) were then transduced with lentivirus. After 48 hours, HeLa cells were cultured under selection with puromycin (3 μg/ml) and allowed to recover and expand before storing stocks in liquid nitrogen.
cAMP was measured in cells using the Lance Ultra cAMP Kit. HeLa cells were cultured under puromycin (3 μg/ml) selection. One day before the experiment, cells were seeded in T75 flasks and allowed to adhere overnight. On the day of the experiment, cells were washed twice with Dulbecco’s PBS and lifted using prewarmed 1× versene solution (Gibco, 15040066). Cells were counted in HBSS (Gibco, 14025092) and then resuspended in stimulation buffer prepared according to the manufacturer’s instructions and adjusted to pH 7.2 using 1 M sodium hydroxide. Cells were added to the plate at a density of 1500 cells per well in white opaque 384-well assay ready microplates containing 100 nl of 10 mM compound in DMSO. Cells were stimulated for 30 min at RT, then lysed and incubated with detection reagents for 1 hour in the dark at RT. Plates were read on BMG Labtech PHERAstar FSX (excitation, 337 nm; emission, 620 and 665 nm). Data analysis was performed using GraphPad Prism.

[6] = 1st hGPR column pair, read-out: hGPR EC50
[7] = 2nd hGPR column pair, read-out: hGPR EC50
[8] = 1st mGPR column pair, read-out: mGPR EC50
[9] = 2nd mGPR column pair, read-out: mGPR EC50

Compound	EC50 [1]	EC50 [2]	Emax ([3]; 2nd hGPR column pair)	Emax ([4]; 2nd mGPR column pair)	Emax [4]	EC50 [3, 6]	EC50 [3, 7]	Emax ([3]; 1st hGPR column pair)	EC50 [4, 8]	EC50 [4, 9]	EC50 ([5]; 2nd GFP column pair)	Emax ([5]; 2nd GFP column pair)	other results
Cc1ccc(C(=O)Cn2c(=O)n(C(C)C)c3nc(-c4ccc(F)cc4)nc(C(N)=O)c32)cc1 [BRD-K81805280-001-02-6]	> 100 µM	> 100 µM											
COc1ccc(C(=O)c2cn(CC(=O)Nc3nc4c(s3)CCCC4)c3cnccc23)cc1 [BRD-K74442183-001-02-5]	< 30 µM	< 30 µM											
NC(=O)C1CCN(C(=O)CN2CCN(c3ccnc4cc(Cl)ccc34)CC2)CC1 [BRD-K56344229-001-02-1]	15.6 µM	12.5 µM											
O=C(Cn1nnc(-c2ccccc2NC(=O)c2ccccc2)n1)NC1CCCCC1 [BRD-K79778627-001-02-1]	> 100 µM	73.7 µM											
COc1ccc(Nc2nnc(-c3ccc(C(N)=O)cc3)c3ccccc23)cc1 [BRD-K46612369-001-11-5]	> 100 µM	> 100 µM											
Nc1ccc2c(C(F)(F)F)cc(=O)oc2c1 [BRD-K20841137-001-08-7]	> 100 µM	> 100 µM											
Cc1ccc(NC(=O)c2cnn3c(O)cc(-c4cnc(N5CCN(C)CC5)c(Cl)c4)nc23)cc1 [BRD5069]			1.75%	42.5%	63.3%								EC50 ([3]; hGPR EC50): 6.24 µM; EC50 ([4]; mGPR EC50 (uM), 2nd mGPR column pair): 5.03 µM; EC50 ([4]; mGPR EC50 (uM)): 0.65 µM; EC50 ([5]; 1st GFP column pair): 1.57 µM; Emax ([5]; 1st GFP column pair): 2.17%
CC(C)OCc1ccc(-c2cc(O)n3ncc(C(=O)Nc4ccccc4)c3n2)cc1 [BRD5060]			109%	48.6%	64.4%	3.72 µM	10.8 µM	94.5%	2.07 µM	1.62 µM	78.1 µM	2.12%	EC50 ([5]; 1st GFP column pair): 47 µM; Emax ([5]; 1st GFP column pair): 5.52%
O=C(CSc1ncnc2sc3c(c12)CCCC3)Nc1nccs1 [BRD-K40136431-001-02-4]		> 100 µM											
Cc1ccc(NC(=O)c2cnn3c(O)cc(-c4ccc(N5CCOCC5)cc4)nc23)cc1 [BRD4390]			76.8%	26.8%	26.6%	0.703 µM	0.265 µM	73.5%	0.403 µM	1.07 µM	11.7 µM	2.2%	
CCCc1cc(-c2cc(O)n3ncc(C(=O)Nc4ccccc4)c3n2)no1 [BRD0124]			71.8%	56.2%	63%	1.12 µM	1.75 µM	62.1%	0.247 µM	0.151 µM	24.6 µM	2.25%	
Cc1cnc(NC(=O)c2cnn3c(O)cc(-c4ccc(COC(C)C)cc4)nc23)cn1 [BRD5073]			65.1%	59.1%	71%	2.16 µM	3.05 µM	73.6%	2.27 µM	2.78 µM	3.53 µM	2.17%	
Cc1ccc(NC(=O)c2cnn3c(O)cc(-c4ccc(N5CCC(=O)CC5)cc4)nc23)cc1 [BRD8536]			63.9%	52.9%	63.5%	4.05 µM	5.53 µM	65.7%	0.98 µM	2.81 µM			EC50 ([5]; 1st GFP column pair): 0.801 µM; Emax ([5]; 1st GFP column pair): 1.86%
CNC(=O)c1ccc(-c2cc(O)n3ncc(C(=O)Nc4ccc(C)cc4)c3n2)cc1 [BRD5083]				106%		26.2 µM		75.2%		99.6 µM	6.27 µM	1.9%	
